These results are taken from publication PMC8042910, “Adiponectin-mimetic novel nonapeptide rescues aberrant neuronal metabolic-associated memory deficits in Alzheimer’s disease” (Molecular Neurodegeneration, 2021).

The subject of series [1] is WT C57BL/6 N mice. It is filed as in vivo, mouse. Particulars: i.p. bolus 10, 20, 30, 40 and 50 mg/kg, observed 1 week, n = 5/group, data not shown. As for the experimental part:
To optimize and analyze the toxicity and effective dose of Os-pep, we performed a separate group of studies using wild-type (WT) male C57BL/6 N mice to examine the toxicity of Os-pep in vivo. The WT mice were rearranged into 5 groups (n = 5 mice/group). Os-pep was administered in bolus dosages of 10, 20, 30, 40 and 50 mg/kg in normal saline to the respective groups, and the Veh-injected mice received the same amount of normal saline as WT mice. We checked for signs of systemic toxicity, such as head tilt, tremor, abnormal physical activity and squinting, for 1 week in WT mice that had been treated with i.p. bolus doses of Os-pep (10, 20, 30, 40 and 50 mg/kg).
To optimize and analyze the toxicity and effective dose of Os-pep, we performed a separate group of studies in order to assess signs of systemic toxicity, such as head tilt, tremor, changes in physical activity and squinting, for 1 week in normal WT mice injected i.p. with bolus doses of Os-pep (10, 20, 30, 40 and 50 mg/kg) to investigate the safety profile of bolus doses of Os-pep.

The subject of series [2] is SH-SY5Y cells. Nature of the series: ApoTox-Glo Triplex assay (viability, cytotoxicity, caspase 3/7), AβO-exposed cells. It is filed as cell-based, human. Particulars: AβO 1 μM, 12 h. How it is done:
The ApoTox-Glo^TM Triplex assay (Promega, Madison, WI) was performed to assess the viability, cytotoxicity and caspase^3/7 activation in the human neuroblastoma SH-SY5Y and mouse hippocampal HT22 cells. SH-SY5Y and HT22 cells (2×10^4/ml) were cultured in 96-well plates (Thermo Fisher Scientific) containing DMEM supplemented with 10% FBS and 1% antibiotics and incubated at 37°C in a humidified incubator containing 5% CO2. After reaching 70% confluency, the cells were treated with AβO (1 µM) and different concentrations of Os-pep (0.5, 1, 5 and 10 µM) for 12 h. The control group (cells treated with 0.01% DMSO) was also analyzed. In addition, SH-SY5Y and HT22 cells were transfected with the AdipoR1 siRNA (h) (SC-60123) and AdipoR1 siRNA (m) (SC-60124), respectively, and treated with AβO (1 µM) and Os-pep (10 µM) for 12 h; the control group was transfected with the negative siRNA (Ambion, Thermo Fisher Scientific) and treated with 0.01% DMSO. The assay was performed according to our previously described protocols.

Series [3] concerns pre- and postsynaptic protein markers. The experiment in a line: Pre- and postsynaptic protein markers in mouse brain, immunoblot. Particulars: 5 μg/g, i.p., alternating days for 45 days. The class given is in vivo. How it is done: Os-pep was dissolved in double-deionized distilled water and then prepared in normal saline to obtain the final administered concentration. The AβO, APP/PS1, Adipo^−/− and WT mice were injected i.p. with Os-pep at a dosage of 5 μg/g on alternating days for 45 days. WT, Veh-injected transgenic-APP/PS1 and Adipo^−/− mice were injected with the same volume of double-deionized water and normal saline. The WT control and sham mice as well as the Veh-injected AβO, APP/PS1, Adipo^−/− and HFD mice received the same volume of double-deionized distilled water or normal saline.
The protein concentrations of the homogenates of mouse brain tissue and cell lysates in vitro were measured using a Bio-Rad protein assay kit (Bio-Rad Laboratories, Hercules, CA), and immunoblotting was performed as we previously described, using primary antibodies (detailed information described in the supplementary Table 1). Western blotting membranes have been cut prior to original western blot images and original western blot images are available at supplementary material.
(In western blotting, separated proteins are transferred to a membrane and probed.)

In series [4] the test system is hippocampal pyramidal neuronal cells. Nature of the series: Golgi staining, dendritic complexity and spine density of hippocampal CA1 pyramidal neurons. It is filed as in vivo, mouse. Particulars: Adipo−/− and AβO mice. The text has this:
In a separate cohort of studies, we performed Golgi staining and morphological analysis of hippocampal pyramidal neuronal cells and were investigated as accordingly our previous protocol.

The test system of series [5] is LTP. Nature of the series: Electrophysiology, LTP in hippocampal CA1 slices. The class given is in vivo, mouse.
Series [6] has as its system learning and memory functions. Nature of the series: Morris water maze (MWM) test. It is filed as in vivo, mouse. As for the experimental part:
(§1) To evaluate the learning and memory functions of the mice, we performed the Morris water maze (MWM) and Y-maze tests. After completion of the Os-pep dosage regimen, behavioral studies were performed on AβO-injected, AβO-injected and scramble and functional AdipoR1 shRNA-treated, APP/PS1 and Adipo^−/− mice (n = 13/group) using the MWM and Y-maze tests. […] The mice were randomly selected, and the operators were unaware of the genotype and treatment details for the behavioral study. The MWM and Y-maze tests were performed as previously described.

The subject of series [7] is spatial working memory. The experiment in a line: Y-maze test. It is filed as in vivo, mouse. Particulars: AβO-injected, APP/PS1 and Adipo−/− mice, n = 13/group. As for the experimental part: as §1
Setting [8] is: AβO-injected, APP/PS1 and Adipo−/− mice, n = 13/group.

The structures appear in SMILES notation. Residues, ends and D or L forms follow the SMILES beside them.

Take `C[C@@H](O)[C@H](NC(=O)[C@@H]1CCCN1C(=O)CNC(=O)[C@H](CS)NC(=O)[C@@H]1CCCN1C(=O)CNC(=O)[C@H](CCC(N)=O)NC(=O)[C@@H](NC(=O)[C@@H](N)CS)[C@@H](C)O)C(=O)O` [Os-pep] (H-CTQGPCGPT-OH; N-terminus and C-terminus assumed): in series [1], the “signs of systemic toxicity (head tilt, tremor, physical activity, squinting)” value is reported as “no toxicity was observed”. In series [2] (AdipoR1 siRNA-transfected SH-SY5Y, Os-pep 10 μM), the “AβO-induced toxicity with AdipoR1 siRNA” value is “did not reduce the AβO-induced toxicity”. Also, the “AβO neurotoxicity (viability, cytotoxicity, caspase 3/7)” value in series [2] (SH-SY5Y, Os-pep 10 μM) was “significantly reduced AβO (1 μM) neurotoxicity”. In series [2] (SH-SY5Y, cotreatment 0.5, 1, 5 and 10 μM), the “neurotoxic effects of AβO” value is on record as “reduced the neurotoxic effects of AβO”. For the same compound, the “pre- and postsynaptic protein levels” value in series [3] (AβO-treated, APP/PS1 and Adipo−/− mice) was “remarkably increased”. The “effects on pre- and postsynaptic markers, Os-pep alone” value in series [3] (WT normal mice) is listed as “did not have any detrimental effects”. Besides, in series [4] (5 μg/g, i.p., alternating days for 45 days), the total dendritic length result is on record as “significantly increased the total dendritic length”. For the same compound, the “total number of spines and filopodia-like spines” value in series [4] (hippocampal CA1) was “significantly increased the total number of spines and the number of filopodia-like spines”. Further, the LTP result in series [5] (APP/PS1 and Adipo−/− mice, 5 μg/g, i.p., alternating days for 45 days, n = 5–6/group) is recorded as “improved LTP”. The “potentiating effect on LTP with AdipoR1 silencing” value in series [5] (AβO mice with shRNA-mediated silencing of AdipoR1 gene) is recorded as “significantly attenuated”. For the same compound, in series [5] (scramble shRNA-treated AβO mice, 5 μg/g, i.p., alternating days for 45 days), the “suppression of LTP, scramble shRNA” value is “almost completely rescued to a level comparable to that of normal controls”. Also, the “spatial learning/memory functions with AdipoR1 silencing (MWM and Y-maze)” value in series [6] (AβO-injected mice exposed to shRNA silencing of AdipoR1 gene, vs scramble shRNA) is given as “did not improve spatial learning/memory functions”. Also, the “latency to reach the submerged platform, training session” value in series [6] (AβO-injected, APP/PS1 and Adipo−/− mice, 5 μg/g, i.p., alternating days for 45 days, n = 13/group) is reported as “decrease in the latency”. In series [6] (setting [8]), the “number of platform crossings, probe test” value is “significantly increased number of platform crossings” and the “time spent in the target quadrant, probe test” value is reported as “more time was spent in the target quadrant”. For the same compound, in series [7], the “percentage of spontaneous alternation behaviors” value was “significantly increased”.
